# What was measured:
# [1] = biological target: T1, hSTING S162V (Homo sapiens, UniProt Q86WV6, S162V); assay: IFN-β luciferase reporter, hSTING S162V; assay type: cell-based; settings: 75 μg/ml DMXAA (FIG. 14A)
# T1 construct: Full-length hSTING (wt and substitutions) and mSTING (wt) constructs were used for this cellular assay; expressed in transfected cells; host or cells: HEK293T
# Method: Luciferase expression was determined after 12 h. […] Cells were lysed in Passive Lysis Buffer.
# (§1) Luciferase assays for DMXAA experiments were performed as described above. Briefly, 3×10^4 293T cells were reverse-transfected with STING constructs (5 ng per 96-well) and reporter constructs (50 ng pIFNβ-Gluc, 10 ng pLenti-EF1-Fluc for normalization, 35 ng pMAX-empty as stuffer, delivered with TransIT-LT1, MirusBio, Madison Wis.). […] 12 hours after stimulation with STING-ligands, cells were resuspended in passive lysis buffer and luciferase activity was determined using the respective substrates Coelenterazine and D-Luciferin (PJK, Kleinblittersdorf, Germany). Gaussia Luciferase values were then normalized to constitutive Firefly Luciferase values (resulting in Relative Light Units, RLU).
# [2] = biological target: T2, hSTING^group2 (Homo sapiens, UniProt Q86WV6, D237N/G230I/I244V/K224M/L222R/T229N); assay: IFN-β luciferase reporter, hSTING^group2; assay type: cell-based; settings: 0.18 mM DMXAA (50 μg/ml), 12 hours
# T2 construct: Full-length hSTING (wt and substitutions) and mSTING (wt) constructs were used for this cellular assay; expressed in transfected cells; host or cells: 293T
# Method: as §1
# Full-length hSTING (wt and substitutions) and mSTING (wt) constructs were used for this cellular assay, and were expressed at moderate levels allowing ligand-dependent activation of IFN-β promoter.
# [3] = biological target: T3, hSTING G166S (Homo sapiens, UniProt Q86WV6, G166S/H232R); assay: IFN-β luciferase reporter, hSTING G166S; assay type: cell-based; settings: 0.18 mM DMXAA, 12 hours
# T3 construct: Full-length hSTING (wt and substitutions) and mSTING (wt) constructs were used for this cellular assay; expressed in transfected cells; host or cells: 293T
# Method: as §1
# [4] = biological target: T4, hSTING Q266V (Homo sapiens, UniProt Q86WV6, H232R/Q266V); assay: IFN-β luciferase reporter, hSTING Q266V; assay type: cell-based; settings: 0.18 mM DMXAA, 12 hours
# T4 construct: Full-length hSTING (wt and substitutions) and mSTING (wt) constructs were used for this cellular assay; expressed in transfected cells; host or cells: 293T
# Method: as §1
# [5] = biological target: hSTING^S162A/G230I/Q266I (Homo sapiens, UniProt Q86WV6, G230I/H232R/Q266I/S162A); assay: CXCL10 ELISA in STING^Gt/Gt BMDCs transduced with hSTING^S162A/G230I/Q266I; assay type: cell-based; settings: 50 μg/ml DMXAA, supernatants at 18 h; compared with the other hSTING substituents
# Method: The protocol for generation of bone marrow-derived dendritic cells was described before (Dai et al., 2014). […] BMDCs (1×10^6 cells/well) were infected with retroviruses expressing hSTING (wt and various substitution mutants).
# hSTING cDNAs were cloned into pQCXIP-HA vector. In vitro packaging system was used to generate retroviruses according to protocol (Clontech). BMDCs (1×10^6 cells/well) were seeded into 6-well plates and infected with retroviruses. […] CXCL10 protein level was determined by ELISA.
# CXCL10 was measured using the BD Opteia human IP-10 ELISA Set according to manufacturer's recommendations. Murine IFN-α was determined by ELISA using antibody RMMA-1 for capture and rabbit-anti-murine IFN-α polyclonal antibody for detection (PBL Interferon Source, Piscataway, N.J.). Dose-response curves were fitted and EC50 values were determined with Graphpad Prism (Graph Pad Software Inc., San Diego, Calif.).
# [6] = biological target: T5, hSTING^S162A/Q266I (aa 155-341) (Homo sapiens, UniProt Q86WV6, H232R/Q266I/S162A); assay: X-ray crystal structure of DMXAA-hSTING^S162A/Q266I complex (Table 8 coordinates); settings: X-ray refinement (PHENIX) of DMXAA-hSTING^S162A/Q266I complex
# T5 construct: His6-SUMO (N, cleaved yes); made in house; host or cells: E. coli BL21 (DE3) RIL, modified pRSFDuet-1 vector
# Method: The crystals were generated by sitting drop vapor diffusion method at 20° C., by mixing equal volume reservoir solution with the sample. The detailed conditions are listed below: DMXAA-hSTING^group2: 2 M LiCl, 10% PEG6000, 0.01 M CaCl2, 0.1 M Tris, pH 7.8; DMXAA-hSTING^G230I: 0.2 M Li2SO4, 20% PEG 3350, 0.015 mM CYMAL®-7, 0.1 M Tris, pH 8.1; DMXAA-hSTING^S162A/Q266I: 0.2 M Ca(Ac)2, 15% PEG3000, 0.01 M L-Proline, 0.1 M NaAc, pH 5.1; DMXAA-hSTING^S162A/G230I/Q266I: 0.2 M Ca(Ac)2, 15% PEG3000, 0.1 M LiCl, 0.1 M NaAc, pH 5.1. All structures were solved using PHASER, COOT, PHENIX, and REFMAC programs.
# (PDB: 4F5D) as the search model. […] For the cGAMP-STING binary structures, two STING molecules in the STING dimer have equal probability to bind with either G or A moiety of the cGAMP isomers. […] We therefore assigned two conformations with 0.5 occupancy for bound cGAMP isomers.
# (PDB: 4LOH) as the search model.
# The model building was conducted using the program COOT (Emsley et al., 2010) and structural refinement was conducted using the program REFMAC (Murshudov et al., 1997).
# [7] = system: non-small-cell lung cancer; settings: with paclitaxel and carboplatin, non-small-cell lung cancer (Lara et al. 2011); cited from earlier work
# [8] = system: hSTING^group1 (aa 140-379); assay: ITC binding, hSTING^group1; settings: isolated group1 substitutions
# [9] = system: hSTING^group3; assay: ITC binding, hSTING^group3; settings: isolated group3 substitutions
# [10] = biological target: hSTING^R232/V162 (Homo sapiens, UniProt Q86WV6, H232R/S162V); assay: ITC binding, hSTING^R232/V162; settings: Protein: 0.08 mM; Ligands: 0.8 mM; 180 mM NaCl, pH 7.5; 25° C.
# [11] = biological target: hSTING^S162A/Q266I (Homo sapiens, UniProt Q86WV6, H232R/Q266I/S162A); assay: IFN-β luciferase reporter, hSTING^S162A/Q266I; assay type: cell-based; design: expressed in transfected cells; settings: dose-response
# Method: as §1
# [12] = biological target: hSTING^R232 (aa 140-379) (Homo sapiens, UniProt Q86WV6, H232R); assay: ITC binding, hSTING^R232 (wt hSTING); settings: wild-type (wt) hSTING protein
# Chain of hSTING^R232 (aa 140-379) (Q86WV6 140-379 H232R): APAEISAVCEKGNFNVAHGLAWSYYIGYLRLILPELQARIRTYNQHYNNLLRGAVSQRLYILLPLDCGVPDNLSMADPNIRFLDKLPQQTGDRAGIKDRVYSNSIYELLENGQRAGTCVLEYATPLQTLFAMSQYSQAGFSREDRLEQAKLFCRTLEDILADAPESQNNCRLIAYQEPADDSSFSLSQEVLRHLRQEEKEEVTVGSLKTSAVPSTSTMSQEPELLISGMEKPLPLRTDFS
# T5 sequence (Q86WV6 155-341 S162A/H232R/Q266I): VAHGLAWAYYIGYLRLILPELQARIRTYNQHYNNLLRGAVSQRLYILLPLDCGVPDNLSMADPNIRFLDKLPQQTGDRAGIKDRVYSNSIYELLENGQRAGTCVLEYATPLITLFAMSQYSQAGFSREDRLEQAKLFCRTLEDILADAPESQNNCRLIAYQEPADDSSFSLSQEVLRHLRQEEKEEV
# Chain of hSTING^R232/V162 (Q86WV6 140-379 S162V/H232R): as the sequence (Q86WV6 140-379 H232R) above, with S23V counted along it
# T4 sequence (Q86WV6 whole entry H232R/Q266V): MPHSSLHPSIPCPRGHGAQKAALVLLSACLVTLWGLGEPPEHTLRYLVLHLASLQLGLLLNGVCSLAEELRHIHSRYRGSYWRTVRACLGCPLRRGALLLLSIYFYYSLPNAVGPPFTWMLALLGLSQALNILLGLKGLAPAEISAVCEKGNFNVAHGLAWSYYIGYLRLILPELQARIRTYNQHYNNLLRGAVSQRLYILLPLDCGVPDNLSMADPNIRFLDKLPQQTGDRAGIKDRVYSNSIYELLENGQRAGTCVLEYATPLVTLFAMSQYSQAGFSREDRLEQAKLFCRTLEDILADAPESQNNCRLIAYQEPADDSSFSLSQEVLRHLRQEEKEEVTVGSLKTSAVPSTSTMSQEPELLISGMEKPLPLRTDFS
# Chain of hSTING^S162A/Q266I (Q86WV6 whole entry S162A/H232R/Q266I): as the sequence (Q86WV6 whole entry H232R/Q266V) above, with S162A, V266I counted along it
# T3 sequence (Q86WV6 whole entry G166S/H232R): as the sequence (Q86WV6 whole entry H232R/Q266V) above, with G166S, V266Q counted along it
# T1 sequence (Q86WV6 whole entry S162V): as the sequence (Q86WV6 whole entry H232R/Q266V) above, with S162V, R232H, V266Q counted along it
# Chain of hSTING^S162A/G230I/Q266I (Q86WV6 whole entry S162A/G230I/H232R/Q266I): as the sequence (Q86WV6 whole entry H232R/Q266V) above, with S162A, G230I, V266I counted along it
# T2 sequence (Q86WV6 whole entry L222R/K224M/T229N/G230I/H232R/D237N/I244V): as the sequence (Q86WV6 whole entry H232R/Q266V) above, with L222R, K224M, T229N, G230I, D237N, I244V, V266Q counted along it
smiles,measurement,setting,value
"Cc1ccc2c(=O)c3cccc(CC(=O)O)c3oc2c1C [DMXAA, 5,6-dimethylxanthenone-4-acetic acid]",IFN induction by DMXAA,[1],not observed
same,IFN-β luciferase reporter response to DMXAA,[2],showed responsiveness to DMXAA
same,DMXAA-mediated IFN-β induction,[3],no effects
same,DMXAA-mediated IFN-β induction,[4],no effects
same,CXCL10 production (ELISA),[5],highest level of CXCL10 production
same,FREE R VALUE,[6],REMARK 3 FREE R VALUE: 0.2288
same,R VALUE (WORKING SET),[6],REMARK 3 R VALUE (WORKING SET): 0.1826
same,RESOLUTION RANGE HIGH (ANGSTROMS),[6],REMARK 3 RESOLUTION RANGE HIGH (ANGSTROMS): 2.420
same,outcome of human phase III trials,[7],failed
same,binding to DMXAA (ITC),[8],no detectable binding
same,binding to DMXAA (ITC),[9],no detectable binding
same,TΔS,[10],+7.93 Kcal/mol
same,ΔG,[10],-7.61 kcal/mol
same,ΔH,[10],+0.32 Kcal/mol
same,DMXAA-induced IFN-β induction,[11],enhanced DMXAA-induced IFN-β induction similar to mSTING
same,binding to DMXAA (ITC),[12],no detectable binding
